Values quoted from earlier work, collected in patent US20240082270A1 (priority 2021, published 2024).
Read-outs that look alike come from different tables or passages of the source.

Legend:
mice = settings: inhaled from ambient air
[1] = animal studies
SARS-CoV-2 spike protein [2] = molecular target: T1, SARS-CoV-2 spike protein (Severe acute respiratory syndrome coronavirus 2, UniProt P0DTC2); settings: allosteric as well as orthosteric ligands
[3] = test system: store-operated calcium (Ca2+) entry (SOCE); settings: human T lymphocytes
[4] = dog; for adverse effects monitored by blood testing: 2 weeks of high twice daily dosing
[5] = mouse, in vivo
[6] = test system: pseudovirus expressing the SARS-CoV-2 spike protein
CB1R = CB1R (Homo sapiens, UniProt P21554)
Sequence of CB1R (P21554 whole entry): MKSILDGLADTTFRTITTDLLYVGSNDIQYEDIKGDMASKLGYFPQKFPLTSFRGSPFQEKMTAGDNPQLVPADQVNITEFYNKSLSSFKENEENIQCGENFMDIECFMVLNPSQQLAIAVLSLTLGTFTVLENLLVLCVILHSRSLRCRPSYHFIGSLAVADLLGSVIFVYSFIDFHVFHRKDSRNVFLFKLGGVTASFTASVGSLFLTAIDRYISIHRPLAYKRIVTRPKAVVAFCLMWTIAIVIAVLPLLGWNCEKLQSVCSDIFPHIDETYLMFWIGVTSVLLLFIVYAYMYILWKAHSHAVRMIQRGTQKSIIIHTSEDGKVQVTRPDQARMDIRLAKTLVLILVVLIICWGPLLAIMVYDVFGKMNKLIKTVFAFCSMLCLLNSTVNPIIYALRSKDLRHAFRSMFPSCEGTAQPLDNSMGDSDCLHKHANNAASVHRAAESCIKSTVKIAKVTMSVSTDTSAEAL

[7] = rat, in vivo
[8] = mouse, in vivo; remark: listed apart in the source
[9] = test system: methicillin resistant Staphylococcus aureus (MRSA)
mouse bladder = settings: induced by acetylcholine
protein kinase B = settings: oxidative muscles
human CBR = settings: rather non-selectively
[10] = molecular target: acylglycerol lipase, MAG1 (Homo sapiens, UniProt Q99685); settings: reversible mechanism
Sequence of acylglycerol lipase, MAG1 (Q99685 whole entry): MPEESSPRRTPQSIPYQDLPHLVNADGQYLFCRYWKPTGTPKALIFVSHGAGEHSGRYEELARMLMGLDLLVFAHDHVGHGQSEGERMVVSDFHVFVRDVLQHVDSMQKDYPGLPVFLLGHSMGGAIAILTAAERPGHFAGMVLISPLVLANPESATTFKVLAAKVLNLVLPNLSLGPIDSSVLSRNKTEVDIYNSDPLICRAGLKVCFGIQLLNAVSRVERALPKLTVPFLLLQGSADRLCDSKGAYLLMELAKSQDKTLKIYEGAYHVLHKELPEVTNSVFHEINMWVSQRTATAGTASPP

[11] = stress and anxiety
[12] = skin models
[13] = after 30 min ingestion
SARS-CoV-2 [14] = settings: lung epithelial cells
[15] = Lennox-Gastaut and Dravet syndrome
5-HT1A receptor = 5-HT1A receptor (Homo sapiens, UniProt P08908)
Sequence of 5-HT1A receptor (P08908 whole entry): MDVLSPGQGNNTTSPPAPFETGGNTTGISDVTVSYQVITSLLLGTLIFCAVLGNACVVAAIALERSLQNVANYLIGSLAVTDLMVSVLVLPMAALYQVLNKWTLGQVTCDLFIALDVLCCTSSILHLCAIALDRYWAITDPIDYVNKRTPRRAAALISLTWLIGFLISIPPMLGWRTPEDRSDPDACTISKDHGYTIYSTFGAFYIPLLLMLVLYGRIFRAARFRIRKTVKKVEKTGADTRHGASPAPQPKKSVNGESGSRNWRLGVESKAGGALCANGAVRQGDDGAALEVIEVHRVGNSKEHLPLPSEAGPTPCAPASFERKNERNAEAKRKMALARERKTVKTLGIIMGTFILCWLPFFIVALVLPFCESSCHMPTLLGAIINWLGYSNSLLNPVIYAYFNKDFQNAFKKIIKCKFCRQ

[16] = pharmaceutical CBD, up to 1500 mg/day for 6 weeks
[17] = not given; remark: listed apart in the source
SARS-CoV-2 [18] = settings: cohort of human patients previously taking CBD
[19] = emulsified, small dispersed molecules
[20] = after oral CBD in rats
[21] = molecular target: SARS-CoV-2 main proteases (Severe acute respiratory syndrome coronavirus 2, UniProt P0DTD1)
SARS-CoV-2 spike protein [22] = molecular target: T1, SARS-CoV-2 spike protein
[23] = chronic or single dose, versus control group without piperine
mast cells = settings: higher concentration
melanoma = settings: inhibition of E2F1 transcription
[24] = if stored properly
CB2R [25] = molecular target: CB2R (Homo sapiens, UniProt P34972)
Sequence of CB2R (Homo sapiens, UniProt P34972) (P34972 whole entry): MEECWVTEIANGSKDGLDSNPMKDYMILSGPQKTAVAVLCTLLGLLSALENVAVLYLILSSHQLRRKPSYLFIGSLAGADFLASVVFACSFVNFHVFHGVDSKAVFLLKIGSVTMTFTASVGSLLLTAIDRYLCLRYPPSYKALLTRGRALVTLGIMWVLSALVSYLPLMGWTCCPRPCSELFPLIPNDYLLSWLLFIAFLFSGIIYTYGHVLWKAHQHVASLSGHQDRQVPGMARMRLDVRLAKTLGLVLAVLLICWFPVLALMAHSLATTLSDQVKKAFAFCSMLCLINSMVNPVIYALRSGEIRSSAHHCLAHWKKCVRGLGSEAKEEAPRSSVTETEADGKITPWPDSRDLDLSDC

[26] = not given; remark: listed apart in the source
CB2R [27] = molecular target: T2, CB2R (Mus musculus, UniProt P47936); settings: oral, <5 mg-kg^−1
T2 construct: host or cells: wild-type mice, in vivo (oral dosing)
T2 sequence (P47936 whole entry): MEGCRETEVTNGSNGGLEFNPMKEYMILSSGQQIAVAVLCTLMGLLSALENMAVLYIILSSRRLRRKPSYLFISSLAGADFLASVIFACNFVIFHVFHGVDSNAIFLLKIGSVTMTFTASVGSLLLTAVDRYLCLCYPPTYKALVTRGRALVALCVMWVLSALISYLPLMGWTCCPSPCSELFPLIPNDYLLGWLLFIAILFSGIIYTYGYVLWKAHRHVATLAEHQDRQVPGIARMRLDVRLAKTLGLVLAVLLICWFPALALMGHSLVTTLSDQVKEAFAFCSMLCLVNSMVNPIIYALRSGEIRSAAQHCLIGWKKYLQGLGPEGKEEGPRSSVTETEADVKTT

[28] = not given; remark: listed apart in the source

Compound: C=CC(C)(O)CCC=C(C)C (centres unmarked) [linalool]
- reduction in motility (mice): 73%

Compound: CCCCCc1cc(O)c(C/C=C(\C)CCC=C(C)C)c(O)c1C(=O)O [CBGA, cannabigerolic acid]
- time of peak brain concentrations [1]: 45 min
- affinity for the spike protein (SARS-CoV-2 spike protein [2]): micromolar affinity
- potency against SOCE (blocking CRAC currents) [3]: dose-dependent high potency
- adverse effects monitored by blood testing [4]: no adverse effects
- oral absorption ([4]; with or without food): orally absorbed significantly better than CBG
- effect on hyperthermia-induced seizures [5]: more effective for seizures triggered by a febrile event than CBD
- entry of live SARS-CoV-2 into cells (live SARS-CoV-2): prevented entry
- infection of human epithelial cells by pseudovirus [6]: prevented infection

Compound: C=C[C@H](O)C#CC#CC/C=C\CCCCCCC [falcarinol]
- Ki (CB1R; read-out: Ki value, CB1R): < 1000 nM

Compound: CCCCCc1cc(O)c(C/C=C(\C)CCC=C(C)C)c(O)c1 [CBG, cannabigerol]
- time of peak brain concentrations [1]: 120 min
- adverse effects monitored by blood testing [4]: no adverse effects
- effect on hyperthermia-induced seizures [5]: Neither CBG nor CBGV affected thresholds
- appetite [7]: increased appetite
- acetylcholine-induced contractions (human bladder): reduce acetylcholine-induced contractions
- bioavailability (oral ingestion): 13-19%
- bioavailability (sublingual administration): 13-56%
- bioavailability (topical applications): 5-10%
- rotarod performance [8]: significantly recovered their rotarod performance
- efficacy in murine systemic infection model ([9]; MRSA): demonstrate in vivo efficacy
- MRSA biofilm formation ([9]; mouse, in vivo): represses MRSA biofilm formation
- ranked potency of detrusor contraction inhibition (mouse bladder): CBG=THCV>CBD>CBDV, but not CBC

Compound: C[C@@H](O)CC(=O)O [R-BHB]
- inhibition of insulin-mediated phosphorylation of protein kinase B (protein kinase B): 50%

Compound: Oc1cc(O)c2c(c1)O[C@H](c1cc(O)c(O)c(O)c1)[C@H](O)C2 [(−)-epigallocatechin]
- concentrations at which binding to human CBR was shown (human CBR): high μM concentrations

Compound: CC(C)=CCC[C@@H](C)[C@@H]1CC[C@]2(C)C3=C(CC[C@@]12C)[C@@]1(C)CC[C@H](O)C(C)(C)[C@@H]1CC3 [euphol]
- IC50 ([10]; read-out: IC50): 315 nM

Compound: CCCCCc1cc(O)c2c(c1)OC(C)(CCC=C(C)C)C=C2 (centres unmarked) [CBC, cannabichromene]
- potency relative to CBD [11]: up to 10 times

Compound: C=C(C)[C@@H]1CCC(C)=C[C@H]1c1c(O)cc(CCC)cc1O [CBDV, Cannabidivarin]
- time of peak brain concentrations [1]: 30 min
- ranked potency of detrusor contraction inhibition (mouse bladder): CBG=THCV>CBD>CBDV, but not CBC

Compound: CC[C@H](CC[C@@H](C)[C@H]1CC[C@H]2[C@@H]3CC=C4C[C@@H](O)CC[C@]4(C)[C@H]3CC[C@]12C)C(C)C [β-sitosterol]
- reduction of chronic edema [12]: 41%
- reduction of topical inflammation [12]: 65%

Compound: CCCc1cc(O)c(C/C=C(\C)CCC=C(C)C)c(O)c1 [CBGV, cannabigerovarin]
- time of peak brain concentrations [1]: 30 min
- effect on hyperthermia-induced seizures [5]: Neither CBG nor CBGV affected thresholds

Compound: CCCc1cc(O)c(C/C=C(\C)CCC=C(C)C)c(O)c1C(=O)O [CBGVA, cannabigerovarinic acid]
- time of peak brain concentrations [1]: 15 min

Compound: CC(C)=CCC/C(C)=C/CO [Geraniol]
- bioavailability [13]: 92%

Compound: CCCCC/C=C\C/C=C\C/C=C\C/C=C\CCCCOC(CO)CO [2-AGE, 2-arachidonyl glyceryl ether]
- Ki (CB1R; read-out: Ki): 21.2 nM

Compound: C=C(C)[C@@H]1CCC(C)=C[C@H]1c1c(O)cc(CCCCC)cc1O [CBD, Cannabidiol]
- SARS-CoV-2 replication (SARS-CoV-2 [14]): block SARS-CoV-2 replication
- reduction in seizures rate [15]: 50%
- concentration that synergistically enhances other 5-HT1A receptor agonists (5-HT1A receptor): 100 nM
- concentrations at which the 5-HT1A receptor is activated (5-HT1A receptor): above 10 μM
- ranked potency of detrusor contraction inhibition (mouse bladder): CBG=THCV>CBD>CBDV, but not CBC
- physical withdrawal symptoms [16]: No physical withdrawal symptoms were observed
- degradation, average values ([17]; effect of light, after 30 days): up to 15%
- degradation, average values ([17]; stored at 37° C. for 30 days): up to 20%
- SARS-CoV-2 infection incidence (SARS-CoV-2 [18]): significantly lower
- sublingually absorbed [19]: up to 35%
- time of peak brain concentration [20]: 6 h
- time of peak serum level [20]: 1 h

Compound: CCCCCc1cc(OC(=O)CCC(=O)O)c2c(c1)OC(C)(C)[C@@H]1CCC(C)=C[C@@H]21 [THC-HS, THC-hemisuccinate]
- bioavailability (rectal): 70-80%

Compound: C=C(C)[C@@H]1CCC(C)=C[C@H]1c1c(O)cc(CCC)c(C(=O)O)c1O [CBDVA]
- time of peak brain concentrations [1]: 15 min

Compound: pinene
- increase in motility (mice): 13.77%

Compound: Nc1ncnc2c1ncn2[C@@H]1O[C@H](CO)C[C@H]1O [Cordycepin, 3′-deoxyadenosine]
- binding affinity [21]: −180.5
- binding affinity (SARS-CoV-2 spike protein [22]): −145.3

Compound: O=C(/C=C/C=C/c1ccc2c(c1)OCO2)N1CCCCC1 [piperine, Piperine]
- increase in oral bioavailability of CBD [23]: ~2.5 fold

Compound: C=CCc1ccc(O)c(OC)c1 [Eugenol]
- concentration leading to translocation of phospho-Ser15-p53 into mitochondria (mast cells): 700 µmol/L
- concentration inducing apoptosis (HL-60 leukemia cells): 40 µmol/L
- concentration inhibiting melanoma growth (melanoma): 0.5 to 2.5 µmol⁻¹

Compound: COC(=O)[C@]1(C)CC[C@]2(C)CC[C@]3(C)C4=CC=C5C(=CC(=O)C(O)=C5C)[C@]4(C)CC[C@@]3(C)[C@@H]2C1 [pristimerin]
- IC50 [10]: 93 nM

Compound: C[C@H]1CC[C@@H](C(C)(C)O)CC2=C1CC[C@@H]2C [Guaiol]
- Shelf Life [24]: ≥ 12 month(s)

Compound: C=C1CC/C=C(\C)CC[C@@H]2[C@@H]1CC2(C)C [β-caryophyllene]
- Ki (CB2R [25]; CB2R, full agonist): 155 nM
- Tmax ([26]; one single oral administration): > 1 h
- maximal onset ([26]; orally administered): 1 h
- anti-inflammatory and analgesic effects (CB2R [27]): strong anti-inflammatory and analgesic effects in wild-type mice but not in CB2 receptor knockout mice

Compound: CCCCCc1cc(OC)c(C/C=C(\C)CCC=C(C)C)c(OC(=O)CCN2CCOCC2)c1 [HUM-234, Monomethoxycannabigeroyl-β-morpholinoproprionate]
- obesity ([28]; mice fed a high-fat diet (HFD)): prevents obesity
- TNF-α levels ([28]; mouse, in vivo): increases TNF-α at higher doses

Compound: CCCc1cc(O)c2c(c1)OC(C)(C)[C@@H]1CCC(C)=C[C@@H]21 [THCV, tetrahydrocannabivarin]
- time of peak brain concentrations [1]: 30 min
- effect on hyperthermia-induced seizures [5]: resulted in seizures at lower temperature thresholds
- ranked potency of detrusor contraction inhibition (mouse bladder): CBG=THCV>CBD>CBDV, but not CBC

Compound: CCCCCc1cc(O)c(C/C=C(\C)CC/C=C(\C)CCC=C(C)C)c(O)c1 [Sesquicannabigerol]
- affinity at CB2R higher than CBG (CB2R [25]; relative to CBG): 5 fold

Compound: C=C(C)[C@@H]1CCC(CO)=C[C@H]1c1c(O)cc(CCCCC)cc1O [7-OH-CBD]
- SARS-CoV-2 replication (SARS-CoV-2 [14]): block SARS-CoV-2 replication

Compound: C=C(C)[C@@H]1CCC(C)=C[C@H]1c1c(O)cc(CCCCC)c(C(=O)O)c1O [CBDA]
- affinity for the spike protein (SARS-CoV-2 spike protein [2]): micromolar affinity
- entry of live SARS-CoV-2 into cells (live SARS-CoV-2): prevented entry
- infection of human epithelial cells by pseudovirus [6]: prevented infection

Compound: O=C(O[C@@H]1Cc2c(O)cc(O)cc2O[C@@H]1c1cc(O)c(O)c(O)c1)c1cc(O)c(O)c(O)c1 [epigallocatechin β-gallate]
- concentrations at which binding to human CBR was shown (human CBR): high μM concentrations

Compound: C=C(C)[C@H]1CC=C(C)CC1 [limonene]
- increase in motility (mice): 35.25%
